Structures can show the parent of a compound that is named as a salt.
Experiment: collision cross section in nitrogen (drift tube, single-field); higher = larger gas-phase ion size
[1] = ion type: [M+H], ion source: APCI, ion mode: Positive
[2] = ion type: [M+H], ion source: ESI, ion mode: Positive
[3] = ion type: [M+Na], ion source: ESI, ion mode: Positive
[4] = ion type: [M-H], ion source: ESI, ion mode: Negative
[5] = ion type: [M+], ion source: APCI, ion mode: Positive
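Note: chemical standards at 10 µM analysed by drift tube IMS-QTOF MS in about 3.95 torr nitrogen, mean of duplicate injections differing ≤1%, mass error below 10 ppm.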

| Structure (SMILES) | collision cross section in nitrogen [1] [Å²] | collision cross section in nitrogen [2] [Å²] | collision cross section in nitrogen [4] [Å²] | collision cross section in nitrogen [3] [Å²] | other results |
| --- | --- | --- | --- | --- | --- |
| CCCCOC(=O)C(C)Oc1ccc(Oc2ccc(C(F)(F)F)cn2)cc1 (stereo not given) [Fluazifop-butyl] | 195.5 | 195.1 | 188.7 | 194.4 |  |
| CC[C@H](NC(=O)c1cc(F)ccc1NS(=O)(=O)c1cccc2cccnc12)c1ccccc1 [AVE3295] | 198 | 197.4 | 203 | 205.8 |  |
| CC1CNc2c(cccc2S(=O)(=O)N[C@@H](CCCNC(=N)N)C(=O)N2CC[C@@H](C)C[C@@H]2C(=O)O)C1 (stereo not given in full) [Argatroban] |  | 216.7 | 207.5 | 221.2 |  |
| CCCCCCCCCCCCCCCC[n+]1ccccc1 [Cetylpyridinium chloride] |  |  |  |  | collision cross section in nitrogen (ion source: APCI, ion mode: Positive, ion type: [M]+ (permanent cation)): 193.3 Å²; collision cross section in nitrogen (ion source: ESI, ion mode: Positive, ion type: [M]+ (permanent cation)): 193.7 Å² |
| O=C(CC(C(=O)OC1CCCCC1)S(=O)(=O)O)OC1CCCCC1 (stereo not given) [Dicyclohexyl sodium sulfosuccinate] |  |  | 188.4 |  |  |
| Cc1c2ccccc2c(C)c2c1ccc1ccccc12 [7,12-Dimethylbenz[a]anthracene] |  |  |  |  | collision cross section in nitrogen [5]: 155.2 Å² |
| CC1C(C)(C)C2=C(C(=O)CCC2)C1(C)C (stereo not given) [Cashmeran] |  |  | 154.6 |  |  |
| CNC(=O)Oc1cccc2c1OC(C)(C)O2 [Bendiocarb] |  |  |  | 157 |  |
| CCCCCCCCc1ccc(Nc2ccc(CCCCCCCC)cc2)cc1 [4,4'-Dioctyldiphenylamine] | 218.8 | 219.9 | 221 |  | collision cross section in nitrogen [5]: 219.4 Å² |
| C=CC(=O)OCC(CC)(COC(=O)C=C)COC(=O)C=C [Trimethylolpropane triacrylate] |  |  |  | 165.9 |  |
| CCOP(=S)(OCC)Oc1cc(C)nc(N(CC)CC)n1 [Pirimiphos-ethyl] | 176.3 | 178.3 |  | 181.5 |  |
| O=S(=O)(O)C(F)(F)F [Trifluoromethanesulfonic acid] |  |  | 110.8 |  |  |
| CCn1cc(C(=O)O)c(=O)c2cc3c(cc21)OCO3 [Oxolinic acid] | 152.6 | 152.3 |  | 165 |  |
| O=C1NC(=O)C(c2ccccc2)(c2ccccc2)N1 [5,5-Diphenylhydantoin] |  |  | 160 |  |  |
| CN(CCCC(O)c1cccnc1)N=O (stereo not given) [4-(Methylnitrosamino)-1-(3-pyridyl)-1-butanol] | 146.4 | 146.4 |  | 152.5 |  |
| O=S(=O)(O)C(F)(F)C(F)(F)C(F)(F)C(F)(F)C(F)(F)C(F)(F)C(F)(F)C(F)(F)F [Potassium perfluorooctanesulfonate] |  |  | 169 |  |  |

| Structure (SMILES) | collision cross section in nitrogen [1] [Å²] | collision cross section in nitrogen [2] [Å²] | collision cross section in nitrogen [4] [Å²] | collision cross section in nitrogen [3] [Å²] | other results |
| --- | --- | --- | --- | --- | --- |
| Nc1cnn(-c2ccccc2)c(=O)c1Cl [Chloridazon] | 143.6 | 144 | 143.7 | 158 |  |
| CCN(CCO)CCO [Ethyl diethanolamine] | 125.6 | 125.8 |  |  |  |
| CCCCN(CCCC)CCCCCCN(CCCC)CCCC [N,N,N',N'-Tetrabutyl-1,6-hexanediamine] |  | 193.6 |  |  |  |
| CCCCCCCCCCCCc1ccc(S(=O)(=O)O)cc1 [Dodecylbenzenesulfonic acid] |  |  | 184.8 | 167.4 |  |
| CCCCCCCCCOS(=O)(=O)O [Sodium nonyl sulfate] |  |  | 154.5 |  |  |
| CC(C)C1(C)N=C(c2nc3ccccc3cc2C(=O)O)NC1=O (stereo not given) [Imazaquin] | 171.7 | 171.7 | 176.9 | 188.4 |  |
| O=C1OC(=O)c2c(Cl)c(Cl)c(Cl)c(Cl)c21 [Tetrachlorophthalic anhydride] |  |  | 158.1 |  |  |
| CCNc1nc(Cl)nc(NCC)n1 [Simazine] | 143.3 | 144 |  |  |  |
| C=C(C)C(=O)OCCOCCOC(=O)C(=C)C [Di(ethylene glycol) dimethacrylate] |  |  |  | 159.5 |  |
| O=S(=O)(O)C(F)(F)C(F)(F)C(F)(F)C(F)(F)C(F)(F)C(F)(F)F [Potassium perfluorohexanesulfonate] |  |  | 150.9 |  |  |
| CCN(CCC#N)c1ccccc1 [3-[Ethyl(phenyl)amino]propanenitrile] | 138.5 | 139.3 |  |  |  |
| CCCCCCCCO[C@@H]1O[C@H](CO)[C@@H](O)[C@H](O)[C@H]1O [Octyl beta-D-glucopyranoside] |  |  | 180.1 | 181.2 |  |
| FC(F)(F)c1ccc(OCCCOc2c(Cl)cc(OCC=C(Cl)Cl)cc2Cl)nc1 [Pyridalyl] | 203 | 203.8 |  | 215 |  |
| CN(C1CCCCC1)S(=O)(=O)c1ccccc1N [2-Amino-N-cyclohexyl-N-methylbenzenesulfonamide] |  |  |  | 173.9 |  |
| O=C1CCCC(=O)C1 [1,3-Cyclohexanedione] |  | 122.6 | 121.3 |  |  |
| CCCC1O[C@@H]2C[C@H]3[C@@H]4CCC5=CC(=O)C=C[C@]5(C)[C@H]4[C@@H](O)C[C@]3(C)[C@]2(C(=O)CO)O1 (stereo not given in full) [Budesonide] |  |  | 204.6 | 230.4 |  |

Further lines, with some results ahead:

| collision cross section in nitrogen [1] [Å²] | collision cross section in nitrogen [2] [Å²] | collision cross section in nitrogen [4] [Å²] | Structure (SMILES) | collision cross section in nitrogen [3] [Å²] | other results |
| --- | --- | --- | --- | --- | --- |
|  |  | 120.6 | O=[N+]([O-])c1ccc(O)cc1 [4-Nitrophenol] |  |  |
|  |  | 128.7 | Oc1ccc2ccccc2c1 [2-Naphthalenol] |  |  |
|  |  | 172.3 | CCOCN(C(=O)CS(=O)(=O)O)c1c(C)cccc1CC [Acetochlor ESA] |  |  |
| 158.8 | 159.4 |  | CCc1nc(N)nc(N)c1-c1ccc(Cl)cc1 [Pyrimethamine] |  |  |
| 159.9 |  |  | Nc1ccc(Oc2ccc(N)c(N)c2)cc1 [3,4,4'-Triaminodiphenyl ether] |  |  |
| 150.7 | 151.2 | 149.6 | Nc1ccc(N=Nc2ccccc2)c(N)c1 [C.I. Basic Orange 2] |  |  |
|  |  | 155.6 | O=C(O)c1cccc(Oc2ccccc2)c1 [3-Phenoxybenzoic acid] |  |  |
| 152.5 | 153.3 |  | Cc1oc(C)c(C(=O)Nc2ccccc2)c1C [Methfuroxam] |  |  |
| 170.8 | 171.2 |  | CN(C)CCCN1c2ccccc2Sc2ccc(Cl)cc21 [Chlorpromazine hydrochloride] |  |  |
|  |  | 136.7 | CCOC(=O)c1ccc(O)cc1 [Ethylparaben] |  |  |
|  | 154.7 | 168.8 | Oc1c(Cl)cc(Cl)cc1Sc1cc(Cl)cc(Cl)c1O [Bithionol] |  |  |
|  |  | 160.9 | O=C(O)c1ccccc1Nc1cccc(C(F)(F)F)c1 [Flufenamic acid] |  | collision cross section in nitrogen [5]: 157.7 Å² |
|  |  | 135.4 | Cc1cc(O)c(Cl)c(C)c1Cl [2,4-Dichloro-3,5-dimethylphenol] |  |  |

— the supplement of paper PMC12317010
